Measurements as given in ChEMBL document CHEMBL3046807, “Synthesis and anti-inflammatory evaluation of some new 3,6-disubstituted-1,2,4-triazolo-[3,4-b]-1,3,4-thiadiazoles bearing pyrazole moiety” (2012).

test system: Rattus norvegicus; assay: Anti-inflammatory activity in Rattus norvegicus Wistar (rat) assessed as inhibition of carrageenan-induced paw edema at 20 mg/kg, ip administered 30 min post carrageenan-challenge measured after 2.5 hr relative to control; format: functional; settings: route intraperitoneal

Row | SMILES | inhibition in vivo at 20 mg/kg [%]
1 | CCc1nnc2sc(-c3c[nH]nc3-c3ccccc3)nn12 | 29.4
2 | CCc1nnc2sc(-c3c[nH]nc3-c3ccc(F)cc3)nn12 | 23.5
3 | CCc1nnc2sc(-c3c[nH]nc3-c3ccc(OC)cc3)nn12 | 17.6
4 | CCc1nnc2sc(-c3c[nH]nc3-c3ccc(Cl)cc3)nn12 | 56.9
5 | CCCc1nnc2sc(-c3c[nH]nc3-c3ccccc3)nn12 | 56.9
6 | CCCc1nnc2sc(-c3c[nH]nc3-c3ccc(F)cc3)nn12 | 12
7 | CCCc1nnc2sc(-c3c[nH]nc3-c3ccc(OC)cc3)nn12 | 13.5
8 | CCCc1nnc2sc(-c3c[nH]nc3-c3ccc(Cl)cc3)nn12 | 64.7
9 | CCc1nnc2sc(-c3c[nH]nc3-c3ccc(Cl)cc3Cl)nn12 | 25.5
10 | CCCc1nnc2sc(-c3c[nH]nc3-c3ccc(Cl)cc3Cl)nn12 | 23.5

test system: Rattus norvegicus; assay: Anti-inflammatory activity in Rattus norvegicus Wistar (rat) assessed as inhibition of carrageenan-induced paw edema at 10 mg/kg, ip administered 30 min post carrageenan-challenge measured after 2.5 hr relative to control; format: functional; settings: route intraperitoneal

Row | SMILES | inhibition in vivo at 10 mg/kg [%]
11 | O=C(O)Cc1ccccc1Nc1c(Cl)cccc1Cl [DICLOFENAC SODIUM] | 80.4
